Assay results published in patent publication US20070010541A1, “Methods for treating vascular diseases” (The General Hospital Corporation, priority 2003, published 2007).

How the values were obtained:
[1] = tested on: grl−/− embryos; test: Whole-organism chemical suppressor screen: suppression of the gridlock phenotype, circulation to the tail; assay type: in vivo, zebrafish; details: for suppression of the gridlock phenotype (restoring circulation to the tail): grl−/− embryos in 96-well plates, circulation examined after 48 hours of development
Experimental: We arrayed grl−/− embryos in 96-well plates, exposed them to small molecules from a structurally-diverse chemical library, and examined their circulation after 48 hours of development. The compounds were purchased as 5 mg/mL stock solutions in DMSO from Cambridge Chemical.
Two of 5,000 small molecules examined suppress the gridlock phenotype in grl−/− embryos, restoring circulation to the tail (FIG. 1B). We confirmed the functional restoration of the aorta by microangiography (FIGS. 1A-B) and histology (FIGS. 1E-F).
Angioblasts in zebrafish are first evident around 14 hours postfertilization (hpf) and begin to aggregate at the midline by 16 hpf (Eriksson et al., J. Morphol. 244(3):167-176, 2000; Fouquet et al., Dev. Biol. 183(1):37-48, 1997). The lumen of the aorta begins to form in the posterior trunk at 17.5 hpf, but is not complete until just prior to the initiation of circulation 24 hpf. The critical period for gs4012 suppression is between 12 and 24 hpf (FIG. 2A).
Similarly, when gs4012 is added during gastrulation and washed away at later and later timepoints, the effectiveness of suppression is increased, reaching maximal suppression by […].

[2] = tested on: VEGF; test: Real-time PCR quantitation of gene expression after gs4012 exposure; assay type: in vivo, zebrafish; details: 24 hpf
Experimental: In the case of real-time PCR, groups of 20 grl−/− embryos are left untreated or treated with a gridlock suppressor. At 24 hours post fertilization, total RNA can be extracted using the Trizol method. Equivalent amounts of total RNA from each sample can be reverse transcribed into cDNA. This cDNA can serve as template for real-time PCR to determine the relative expression quantities for the genes listed above. RT-PCR can be performed with an Applied Biosystems Sequence Detection System 7000. Taqman probes and primers can be designed using zebrafish genomic sequences made publicly available by the Wellcome Trust Sanger Institute.
We used real-time PCR to quantitate the expression of several genes believed to play roles in angioblast cell fate determination or migration. […] VEGF plays an important role in formation of the aorta. VEGF122 expression in the Xenopus hypochord acts as a chemoattractant, stimulating angioblast migration to the midline prior to aorta formation (Cleaver et al., Development 125(19):3905-3914, 1998). […]

With O=[N+]([O-])c1ccc(SCCc2ccncc2)cc1 [gs3999] the “suppression of the gridlock phenotype (restoring circulation to the tail)” value [1] was “identified as gridlock suppressors”.

In the case of COc1ccc(SCCc2ccncc2)cc1 [gs4012], the “time at which maximal suppression is reached” value ([1]; added during gastrulation and washed away at later timepoints) is reported as at most 30 hpf, the “reversibility of suppression after removal of the suppressor” value ([1]; after removal of suppressor) is reported as “suppression is irreversible” and the “viability of rescued mutants” value ([1]; after removal of suppressor) is reported as “remain viable to adulthood”. For the same molecule, the “suppression of the gridlock phenotype (restoring circulation to the tail)” value [1] was “identified as gridlock suppressors”, the “relative potency as gridlock suppressor” value ([1]; grl−/− embryos, dose response) was “more potent suppressor than gs3999” and the “suppression when treatment begins after 24 hpf” value ([1]; treatment begins after 24 hpf) was “Little or no suppression”. The VEGF expression [2] was “upregulated”.
